Experiment [1] deals with T1, hCRTH2 receptor (Homo sapiens (Human), UniProt Q9Y5Y4). As to the kind of experiment: hCRTH2 receptor membranes radioligand displacement assay (3H-PGD2). The conditions noted are these: 3H-PGD2 2.5 nM, HEK293-hCRTH2 membranes, Binding-Buffer with 0.1% BSA. As to the method: Biological Assays: Preparation of hCRTH2 Receptor Membranes and Radioligand Displacement Assay:
(§1) First, recombinant HEK293-hCRTH2 cells were detached from culture plates into 5 ml buffer A/plate (Buffer A: 5 mM Tris, 1 mM MgCl2-6H2O pH=7.4) using a rubber policeman. Cells were then transferred into centrifugation tubes and centrifuged for 5 min at 400 g. The cell pellet was resuspended in the same buffer and tubes were frozen at −80° C. Cells were thawed and membrane fragments were generated by homogenization using a polytron homogenizer (30 seconds). The membrane fragments were then centrifuged at 3000 g for 20 minutes and resuspended in buffer C (Buffer C: 75 mM Tris, 25 mM MgCl2, 250 mM Saccharose pH 7.4). Aliquots of membrane fragements were stored at −20° C.
(§2) Binding assay was performed in a final assay volume of 250 μl. First, 25 μl of test compound, previously diluted in Binding-Buffer (Binding-Buffer: 50 mM Tris-Base, 100 mM NaCl, 1 mM EDTA, 0.1% BSA (protease free), 0.01% NaN3, 10 mM MnCl2 pH 7.0) was placed into each well. After addition of 75 μl Binding-Buffer, 50 μl of the radioligand ^3H-PGD2 (at 2.5 nM (220.000 dpm/well) from ANAWA ART0662) was added to each well. Binding assay was started by addition of 100 μl CRTH2 membrane fragments, reaching a final concentration of 20 μg/well. For non-specific binding, PGD2 was added to the reaction mixture to […] final concentration. This assay mix was incubated for 90 minutes at room temperature and then filtered through a GF/C filter 96-well plate which was pre-soaked for 3 hours in 0.5% polyethyleneimine (PEI). The filter-wells were washed three times with ice cold Binding-Buffer. Then, 40 μl of Microscint-40 (Packard) was added to each well and the retained radioactivity quantified in a Topcount (Packard).

Experiment [2] addresses T1, hCRTH2 receptor. As to the kind of experiment: Radioligand displacement assay in presence of human serum albumin (HSA). The conditions noted are these: 3H-PGD2 2.5 nM, Binding-Buffer with 0.5% HSA instead of 0.1% BSA. As for the experimental part:
as §1, §2
Radioligand Displacement Assay-Human Serum Albumin (HSA):
Radioligand displacement assay in presence of human serum albumin (HSA) was performed as described above, with following modifications. Binding-Buffer-HSA: Binding-buffer+0.5% Sigma Albumin from Human serum A1887 (instead of 0.1% BSA). A volume of 25 μl test compound, previously diluted in Binding-Buffer-HSA was placed into each well. After addition of 75 μl Binding-Buffer-HSA, 50 μl of ^3H-PGD2 (at 2.5 nM (220.000 dpm/well) from ANAWA ART0662) was added to each well. Remaining protocol was identical as described above.

Experiment [3] deals with eosinophils. As to the kind of experiment: Eosinophil shape change assay with human plasma. The conditions noted are these: human polymorphonuclear cells, 50% human plasma, activated with 100 nM PGD2. Type of experiment: cell-based. As for the experimental part: After obtaining informed consent, blood samples were drawn by venipuncture according to the protocol approved by the ethics committee of Basel, Switzerland. Polymorphonuclear leukocytes (containing eosinophils, basophils and neutrophils) were isolated using the Polymorphprep™ method (Axis-Shield). In brief, anticoagulated whole blood was layered onto a Polymorphprep gradient (density 1.113 g/ml) and centrifuged at 500 g for 30 min. The polymorphonuclear cell fraction was harvested and depleted for erythrocytes by hypotonic saline lysis.
The polymorphonuclear cells were resuspended in assay buffer (1×PBS with Ca^2+/Mg^2+ supplemented with 0.1% BSA, 10 mM HEPES, and 10 mM Glucose, pH 7.4) at 5×10^6 cells/ml and stained with anti-CD49d-APC ((APC=Allophycocyanin) for 1 hour at RT. Test compounds, at various concentrations, were preincubated 10 min in human plasma (anticoagulated with a thrombin inhibitor). Then, human plasma was added to the polymorphonuclear cells to 50% of final assay volume with polymorphonuclear cells at 4×10^6 cells/rd. After incubation for 10 minutes at 37° C., the polymorphonuclear cells were activated for 5 min at 37° C. by addition of PGD2 at 100 nM final concentration. Activation was stopped by addition of 0.5 ml paraformaldehyde (1%).
Immediately after fixation with paraformaldehyde, the samples were analyzed by FACSCanto flow cytometer (BD Biosciences) and target cells were identified by their forward-scatter (FSC) and side-scatter (SSC) characteristics. Eosinophils were identified by the anti-CD49d-APC signal and their characteristic side-scatter (SSC) profile. Shape change responses, indicative of eosinophil activation, were quantified as the percent of cells with an increased forward-scatter.

T1 sequence (Q9Y5Y4 whole entry, the tested form may be a part): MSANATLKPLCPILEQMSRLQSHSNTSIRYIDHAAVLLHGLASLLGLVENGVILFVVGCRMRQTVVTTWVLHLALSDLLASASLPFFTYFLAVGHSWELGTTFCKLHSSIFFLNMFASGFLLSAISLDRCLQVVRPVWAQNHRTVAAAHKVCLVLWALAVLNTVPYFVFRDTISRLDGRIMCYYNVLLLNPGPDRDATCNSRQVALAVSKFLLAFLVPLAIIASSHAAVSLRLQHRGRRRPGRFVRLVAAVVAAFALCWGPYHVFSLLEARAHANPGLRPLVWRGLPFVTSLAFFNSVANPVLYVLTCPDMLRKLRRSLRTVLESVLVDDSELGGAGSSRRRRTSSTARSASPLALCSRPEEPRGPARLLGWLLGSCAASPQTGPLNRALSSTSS

Take `CN(c1ncc(C(F)(F)F)cn1)[C@H]1CCc2c(c3cc(F)ccc3n2CC(=O)O)C1` [Example 11, (3S)-2-(6-fluoro-3-(methyl(5-(trifluoromethyl)pyrimidin-2-yl)amino)-3,4-dihydro-1H-carbazol-9(2H)-yl)acetic acid]: the half-maximal inhibitory concentration (IC50) in experiment [1] was found to be 2 nM; in experiment [2] it was 15 nM; in experiment [3] (Eosinophil) it was 49 nM.

Consider `CN(c1nc2ccccc2o1)[C@H]1CCc2c(c3cc(F)ccc3n2CC(=O)O)C1` [Example 19, (3S)-2-(3-(benzo[d]oxazol-2-yl(methyl)amino)-6-fluoro-3,4-dihydro-1H-carbazol-9(2H)-yl)acetic acid], for which the figures for the IC50 in experiment [1], in experiment [2] and in experiment [3] (Eosinophil) were 7.3 nM, 17 nM and 31 nM, respectively.

`CN(c1ncc(Cl)cn1)[C@H]1CCc2c(c3cc(F)ccc3n2CC(=O)O)C1` [Example 9, (3S)-2-(3-((5-chloropyrimidin-2-yl)(methyl)amino)-6-fluoro-3,4-dihydro-1H-carbazol-9(2H)-yl)acetic acid]: the figures for the IC50 in experiment [1], in experiment [2] and in experiment [3] (Eosinophil) were 2.7 nM, 11 nM and 15 nM, respectively.

Take `CN(c1ncc2ccccc2n1)[C@H]1CCc2c(c3cc(F)ccc3n2CC(=O)O)C1` [Example 28, (3S)-2-(6-fluoro-3-(methyl(quinazolin-2-yl)amino)-3,4-dihydro-1H-carbazol-9(2H)-yl)acetic acid]: the 50% inhibitory concentration (IC50) worked out at 12 nM in experiment [1], 22 nM in experiment [2] and 25 nM in experiment [3] (Eosinophil).

For the compound `CN(c1nc2cc(Cl)ccc2o1)[C@H]1CCc2c(c3cc(F)ccc3n2CC(=O)O)C1` [Example 18, (3S)-2-(3-((5-chlorobenzo[d]oxazol-2-yl)(methyl)amino)-6-fluoro-3,4-dihydro-1H-carbazol-9(2H)-yl)acetic acid], the values for the IC50 in experiment [1], in experiment [2] and in experiment [3] (Eosinophil) were 1.4 nM, 28 nM and 6 nM, respectively.

With `O=C(O)Cn1c2c(c3cc(F)ccc31)C[C@@H](Nc1ncc(F)cn1)CC2` [Example 1, (3S)-2-(6-fluoro-3-((5-fluoropyrimidin-2-yl)amino)-3,4-dihydro-1H-carbazol-9-(2H)-yl)acetic acid], the IC50 in experiment [1] amounted to 16 nM; in experiment [2], 20 nM; in experiment [3], 21 nM.

As to `COCCN(c1ncc(Cl)cn1)[C@H]1CCc2c(c3cc(F)ccc3n2CC(=O)O)C1` [Example 34, (3S)-2-(3-((5-chloropyrimidin-2-yl)(2-methoxyethyl)amino)-6-fluoro-3,4-dihydro-1H-carbazol-9(2H)-yl)acetic acid], the IC50 in experiment [1] turned out to be 5.9 nM; in experiment [2], 14 nM; in experiment [3] (Eosinophil), 8 nM.

Turning to `CN(c1nc2cc(F)ccc2o1)[C@H]1CCc2c(c3cc(F)ccc3n2CC(=O)O)C1` [Example 29, (3S)-2-(6-fluoro-3-((5-fluorobenzo[d]oxazol-2-yl)(methyl)amino)-3,4-dihydro-1H-carbazol-9(2H)-yl)acetic acid], the 50% inhibitory concentration (IC50) in experiment [1] is 4.1 nM; in experiment [2] it was 7 nM; in experiment [3] (Eosinophil), 4 nM.

For `CN(c1nc2ccc(Cl)cc2o1)[C@H]1CCc2c(c3cc(F)ccc3n2CC(=O)O)C1` [Example 40, (3S)-2-(6-fluoro-3-((6-chlorobenzo[d]oxazol-2-yl)(methyl)amino)-3,4-dihydro-1H-carbazol-9(2H)-yl)acetic acid], the IC50 in experiment [1] turned out to be 2 nM; in experiment [2], 21 nM; in experiment [3] (Eosinophil), 75 nM.

As to `Cc1csc(N(C)C2CCc3c(c4cc(F)ccc4n3CC(=O)O)C2)n1` (stereo not shown) [Example 45, 2-(6-fluoro-3-(methyl(4-methylthiazol-2-yl)amino)-3,4-dihydro-1H-carbazol-9(2H)-yl)acetic acid], the 50% inhibitory concentration (IC50) in experiment [1] came to 9.7 nM; in experiment [2] it was 25 nM; in experiment [3] (Eosinophil), 414 nM.

Regarding `CN(c1ncccn1)[C@H]1CCc2c(c3cc(F)ccc3n2CC(=O)O)C1` [Example 15, (3S)-2-(6-fluoro-3-(methyl(pyrimidin-2-yl)amino)-3,4-dihydro-1H-carbazol-9(2H)-yl)acetic acid], the results for the IC50 in experiment [1], in experiment [2] and in experiment [3] (Eosinophil) were 9.9 nM, 35 nM and 66 nM, respectively.

As to `CN(c1nc2cc(Cl)ccc2s1)[C@H]1CCc2c(c3cc(F)ccc3n2CC(=O)O)C1` [Example 33, (3S)-2-(3-((5-chlorobenzo[d]thiazol-2-yl)(methyl)amino)-6-fluoro-3,4-dihydro-1H-carbazol-9(2H)-yl)acetic acid], the IC50 stood at 10 nM in experiment [1], 8 nM in experiment [2] and 46 nM in experiment [3] (Eosinophil).

On to `CN(c1nc(C(F)(F)F)nc2ccccc12)[C@H]1CCc2c(c3cc(F)ccc3n2CC(=O)O)C1` [Example 22, (3S)-2-(6-fluoro-3-(methyl(2-(trifluoromethyl)quinazolin-4-yl)amino)-3,4-dihydro-1H-carbazol-9(2H)-yl)acetic acid], for which the values for the half-maximal inhibitory concentration (IC50) in experiment [1] and in experiment [2] were 16 nM and 380 nM, respectively.

Turning to `COc1cnc(N(C)[C@H]2CCc3c(c4cc(F)ccc4n3CC(=O)O)C2)nc1` [Example 31, (3S)-2-(6-fluoro-3-((5-methoxypyrimidin-2-yl)(methyl)amino)-3,4-dihydro-1H-carbazol-9(2H)-yl)acetic acid], the 50% inhibitory concentration (IC50) in experiment [1] is 7.2 nM; in experiment [2], 43 nM.

As for `CN(c1ncc(Cl)cn1)C1CCc2c(c3ccccc3n2CC(=O)O)C1` (stereo not shown) [Example 53, 2-(3-((5-chloropyrimidin-2-yl)(methyl)amino)-3,4-dihydro-1H-carbazol-9(2H)-yl)acetic acid], the IC50 in experiment [1] was 5.1 nM; in experiment [2], 16 nM.

Consider `COc1ccc2c(c1)c1c(n2CC(=O)O)CCC(N(C)c2ncc(Cl)cn2)C1` (stereo not shown) [Example 57, 2-(3-((5-chloropyrimidin-2-yl)(methyl)amino)-6-methoxy-3,4-dihydro-1H-carbazol-9(2H)-yl)acetic acid], for which the IC50 in experiment [1] was found to be 4.6 nM; in experiment [2] it was 56 nM.

Take `CN(c1nc2ccccc2s1)[C@H]1CCc2c(c3cc(F)ccc3n2CC(=O)O)C1` [Example 20, (3S)-2-(3-(benzo[d]thiazol-2-yl(methyl)amino)-6-fluoro-3,4-dihydro-1H-carbazol-9(2H)-yl)acetic acid]: the values for the IC50 in experiment [1] and in experiment [2] were 8.1 nM and 40 nM, respectively.

`CN(c1ccon1)C1CCc2c(c3cc(F)ccc3n2CC(=O)O)C1` (stereo not shown) [Example 51, 2-(6-fluoro-3-(isoxazol-3-yl(methyl)amino)-3,4-dihydro-1H-carbazol-9(2H)-yl)acetic acid]: the IC50 in experiment [1] worked out at 6.4 nM; in experiment [2], 53 nM.

As for `CN(c1ccc(C(F)(F)F)cn1)[C@H]1CCc2c(c3cc(F)ccc3n2CC(=O)O)C1` [Example 35, (3S)-2-(6-fluoro-3-(methyl(5-(trifluoromethyl)pyridin-2-yl)amino)-3,4-dihydro-1H-carbazol-9(2H)-yl)acetic acid], the IC50 turned out to be 9.1 nM in experiment [1] and 20 nM in experiment [2].

As to `CN(c1ncc(Cl)cn1)C1CCc2c(c3cc(Cl)ccc3n2CC(=O)O)C1` (stereo not shown) [Example 54, 2-(6-chloro-3-((5-chloropyrimidin-2-yl)(methyl)amino)-3,4-dihydro-1H-carbazol-9(2H)-yl)acetic acid], the IC50 in experiment [1] turned out to be 2 nM; in experiment [2] it was 3 nM.

Source of the values: patent US8697869B2, “3-(heteroaryl-amino)-1,2,3,4-tetrahydro-9H-carbazole derivatives and their use as prostaglandin D2 receptor modulators” (Actelion Pharmaceuticals Ltd., priority 2010, dated 2014).
